Values after ≈ are worked out from the molar mass of the structure shown. Read-outs that look alike come from different tables or passages of the source.
Experiments:
L. rhamnosus LR-34 = assay: Antibiotic susceptibility testing, broth microdilution MIC; format: cell-based; details: for MIC: Lacticaseibacillus rhamnosus; for MIC / Minimum inhibitory concentration: MRS, anaerobic, 24 h, ≥90% reduction in growth
Procedure: (§1) Antibiotic Susceptibility Testing. Susceptibility of Lactobacillus spp. to antibiotics was determined using standard broth microdilution procedures (24). […] Plates were incubated anaerobically at 37° C. for 24 h. Optical density measurements (600 nm) were recorded using a Synergy™ H1 Hybrid Multi-Mode Microplate Reader (BioTek Instruments, Inc, Winooski, Vt.). […] Significance was determined using student's t test with equal variance.

L. casei LC-39 = assay: as above; format: cell-based; details: for MIC: Lacticaseibacillus casei; for MIC / Minimum inhibitory concentration: MRS, anaerobic, 24 h, ≥90% reduction in growth
Procedure: as §1

C. difficile R20291 = details: C. difficile R20291, CDI patient stool; cited from earlier work
[1] = system: C. difficile-associated diarrheal isolates; details: cited from earlier work
L. reuteri 17938 = assay: Antibiotic susceptibility testing, broth microdilution MIC; format: cell-based; details: read-out: Minimum inhibitory concentration
Procedure: (§2) Antibiotic Susceptibility Testing. Susceptibility of Lactobacillus spp. to antibiotics was determined using standard broth microdilution procedures (24). […] Plates were incubated anaerobically at 37° C. for 24 h. Optical density measurements (600 nm) were recorded using a Synergy™ H1 Hybrid Multi-Mode Microplate Reader (BioTek Instruments, Inc, Winooski, Vt.). Results were compared to a growth control (lactobacilli only), and the minimum inhibitory concentration (MIC) endpoint was the concentration of antibiotic where ≥90% reduction in growth was observed. Significance was determined using student's t test with equal variance.

L. gasseri LG-3 = assay: as above; format: cell-based; details: for MIC: Lactobacillus gasseri, read-out: Minimum inhibitory concentration
Procedure: as §2

L. reuteri 6475 = assay: as above; format: cell-based; details: read-out: Minimum inhibitory concentration
Procedure: as §2

C. difficile CD2015 = assay: C. difficile invasion of antibiotic-treated human fecal mini-bioreactor arrays (MBRA), qPCR; format: cell-based; details: clindamycin-treated MBRA, increase not statistically significant
Procedure: Mini-bioreactor array (MBRA) preparation, operation and sample collection. Effects of reuterin on C. difficile growth in a human fecal microbial community were tested in MBRAs. Replicate MBRAs (twelve independent 15-mL reactors) and bioreactor medium (BRM2) were prepared as previously described (26). Reactors were inoculated with an anaerobic preparation of a 25% fecal slurry from an anonymous healthy donor (5% w/v final concentration) and were operated in an anaerobic chamber with 5% H2, 5% CO2, 90% N2 atmosphere. After 16 h of outgrowth in batch culture mode, continuous-flow cultivation was initiated at a flow rate of 0.94 ml/h (16 h retention time). After 36 h of flow, reactor communities were treated twice daily with clindamycin (500 mg/L final concentration) for 4.5 days. Reactors were transitioned to fresh medium on day 4 of clindamycin treatment, with 6 reactors receiving standard BRM2 medium and 6 reactors receiving BRM2 supplemented with glycerol (10% v/v final concentration). […]
Samples (1 ml) were collected from each MBRA as described (27) prior to the initiation of continuous flow and then daily through the duration of the experiment. […] Microbial community and metabolite analysis, and quantification of C. difficile levels by quantitative PCR (qPCR) were performed as described below. […]
Quantification of C. difficile by qPCR. […]

[2] = LR34, L. rhamnosus LR-34, read-out: Minimum inhibitory concentration
[3] = LC39, L. casei LC-39, read-out: Minimum inhibitory concentration
[4] = Limosilactobacillus reuteri, L. reuteri 17938, MRS, anaerobic, 24 h, ≥90% reduction in growth
[5] = LG3, L. gasseri LG-3, MRS, anaerobic, 24 h, ≥90% reduction in growth
[6] = Limosilactobacillus reuteri, 6475, 24 h

In the case of `CCc1c(Cl)c(O)c(Cl)c(O)c1C(=O)O[C@H]1[C@H](O)[C@H](OC)[C@H](OC/C2=C\C=C\C[C@H](O)/C(C)=C/[C@H](CC)[C@@H](O[C@@H]3OC(C)(C)[C@@H](OC(=O)C(C)C)[C@H](O)[C@@H]3O)/C(C)=C/C(C)=C/C[C@@H]([C@@H](C)O)OC2=O)O[C@@H]1C` [Fidaxomycin, fidaxomicin], the “MIC relative to the MIC90 for C. difficile” value (L. rhamnosus LR-34; L. rhamnosus LR-34, fold greater) is reported as 4 fold, the MIC (L. rhamnosus LR-34; [2]) is reported as 2 µg/mL and the “MIC relative to the MIC90 for C. difficile” value (L. casei LC-39; L. casei LC-39, fold greater) is reported as 4 fold. The MIC (L. casei LC-39; [3]) was 2 µg/mL, the Minimum inhibitory concentration (C. difficile R20291) was 0.5 µg/mL (≈ 0.473 µM) and the MIC90 [1] was 0.5 µg/mL (≈ 0.473 µM). The MIC (L. reuteri 17938; [4]) was greater than 32 µg/mL, the MIC (L. gasseri LG-3; [5]) was 2 µg/mL and the MIC (L. reuteri 6475; Limosilactobacillus reuteri, L. reuteri 6475, MRS, anaerobic, 24 h, ≥90% reduction in growth) was greater than 32 µg/mL.

`Cc1ncc([N+](=O)[O-])n1CCO` [Metronidazole, metronidazole] showed a Minimum inhibitory concentration (L. rhamnosus LR-34; L. rhamnosus LR-34) greater than 256 µg/mL, an MIC (L. rhamnosus LR-34; [2]) greater than 256 µg/mL and a Minimum inhibitory concentration (L. casei LC-39; L. casei LC-39) greater than 256 µg/mL. The MIC (L. casei LC-39; [3]) was greater than 256 µg/mL, the Minimum inhibitory concentration (C. difficile R20291) was 2 µg/mL (≈ 11.7 µM) and the MIC90 [1] was 2 µg/mL (≈ 11.7 µM). For the same compound, the MIC (L. reuteri 17938; [4]) was greater than 256 µg/mL, the Minimum inhibitory concentration (L. gasseri LG-3; L. gasseri LG-3, MRS, anaerobic, 24 h, ≥90% reduction in growth) was greater than 256 µg/mL and the MIC (L. gasseri LG-3; [5]) was greater than 256 µg/mL. For the same compound, the MIC (L. reuteri 6475; [6]) was 128 µg/mL.

With `CN[C@H](CC(C)C)C(=O)N[C@H]1C(=O)N[C@@H](CC(N)=O)C(=O)N[C@H]2C(=O)N[C@H]3C(=O)N[C@H](C(=O)N[C@H](C(=O)O)c4cc(O)cc(O)c4-c4cc3ccc4O)[C@H](O)c3ccc(c(Cl)c3)Oc3cc2cc(c3O[C@@H]2O[C@H](CO)[C@@H](O)[C@H](O)[C@H]2O[C@H]2C[C@](C)(N)[C@H](O)[C@H](C)O2)Oc2ccc(cc2Cl)[C@H]1O` [Vancomycin, vancomycin] the Minimum inhibitory concentration (L. rhamnosus LR-34; L. rhamnosus LR-34) was 256 µg/mL, the MIC (L. rhamnosus LR-34; LR34, 24 h, read-out: Minimum inhibitory concentration, L. rhamnosus LR-34) was greater than 256 µg/mL and the Minimum inhibitory concentration (L. casei LC-39; L. casei LC-39) was 256 µg/mL. For the same compound, the MIC (L. casei LC-39; LC39, 24 h, read-out: Minimum inhibitory concentration, L. casei LC-39) was greater than 256 µg/mL, the Minimum inhibitory concentration (C. difficile R20291) was 4 µg/mL (≈ 2.76 µM) and the MIC90 [1] was 4 µg/mL (≈ 2.76 µM). It also gave an MIC (L. reuteri 17938; Limosilactobacillus reuteri, 17938, 24 h) of 256 µg/mL, an MIC (L. gasseri LG-3; LG3, 24 h) of 1 µg/mL and an MIC (L. reuteri 6475; [6]) of 256 µg/mL.

For `OCC(O)CO` [glycerol], the “C. difficile concentrations, fold greater than controls” value (C. difficile CD2015) was roughly 10 fold.
